Experimental data from patent US11013745B2, “Triazolopyrimidine, triazolopyridine compounds, and the composition thereof for treating PRC2-mediated diseases” (SHANGHAI INSTITUTE OF MATERIA MEDICA, CHINESE ACADEMY OF …, priority 2017, dated 2021).
Where two headings read alike, the source gives them in different places.

Assays:
Karpas-422 cells = test: Growth inhibition of Karpas-422 cells in a long term (11 days), CellTiter-Glo; format: cell-based, Human; conditions: Karpas-422, 11 days, read-out: Karpas-422 (11 days) IC50
Pfeiffer cells [1] = test: Pfeiffer cell growth inhibition in a long term (11 days), CellTiter-Glo; format: cell-based, Human; conditions: 11 days, read-out: Experiment on Pfeiffer cell growth inhibition in a long term (11 days IC50)
Description: Pfeiffer cells in exponential growth phase were seeded in a 24-well plate with a cell density of 1*10E5 cells/mL. Cells were treated on the same day with the compounds at different concentrations. At day 4 and day 7 of compound treatment, fresh media and compounds were changed. After treated with the compounds for 11 days, cell viability was measured using CellTiter-Glo reagent (Promega Corporation). The data was analyzed using GraphPad Prism 5.0 software and GI50 values were obtained.

PRC2 enzyme = PRC2 enzyme (Homo sapiens (Human), UniProt O75530); test: PRC2 enzyme activity, TR-FRET method; format: biochemical
Chain of PRC2 enzyme (O75530 whole entry): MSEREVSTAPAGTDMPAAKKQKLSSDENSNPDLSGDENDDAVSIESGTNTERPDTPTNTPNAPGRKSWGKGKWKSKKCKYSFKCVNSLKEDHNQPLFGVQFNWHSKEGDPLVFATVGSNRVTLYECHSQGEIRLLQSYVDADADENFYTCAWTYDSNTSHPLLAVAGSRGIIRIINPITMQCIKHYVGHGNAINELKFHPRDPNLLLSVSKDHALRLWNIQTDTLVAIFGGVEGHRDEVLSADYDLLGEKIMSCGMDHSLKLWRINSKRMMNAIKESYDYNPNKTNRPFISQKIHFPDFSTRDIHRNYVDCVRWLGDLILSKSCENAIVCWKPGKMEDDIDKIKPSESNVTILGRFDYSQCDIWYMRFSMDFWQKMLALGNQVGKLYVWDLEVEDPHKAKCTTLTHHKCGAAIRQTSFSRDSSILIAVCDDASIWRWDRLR
Chain of PRC2 enzyme (Q15910 whole entry partner): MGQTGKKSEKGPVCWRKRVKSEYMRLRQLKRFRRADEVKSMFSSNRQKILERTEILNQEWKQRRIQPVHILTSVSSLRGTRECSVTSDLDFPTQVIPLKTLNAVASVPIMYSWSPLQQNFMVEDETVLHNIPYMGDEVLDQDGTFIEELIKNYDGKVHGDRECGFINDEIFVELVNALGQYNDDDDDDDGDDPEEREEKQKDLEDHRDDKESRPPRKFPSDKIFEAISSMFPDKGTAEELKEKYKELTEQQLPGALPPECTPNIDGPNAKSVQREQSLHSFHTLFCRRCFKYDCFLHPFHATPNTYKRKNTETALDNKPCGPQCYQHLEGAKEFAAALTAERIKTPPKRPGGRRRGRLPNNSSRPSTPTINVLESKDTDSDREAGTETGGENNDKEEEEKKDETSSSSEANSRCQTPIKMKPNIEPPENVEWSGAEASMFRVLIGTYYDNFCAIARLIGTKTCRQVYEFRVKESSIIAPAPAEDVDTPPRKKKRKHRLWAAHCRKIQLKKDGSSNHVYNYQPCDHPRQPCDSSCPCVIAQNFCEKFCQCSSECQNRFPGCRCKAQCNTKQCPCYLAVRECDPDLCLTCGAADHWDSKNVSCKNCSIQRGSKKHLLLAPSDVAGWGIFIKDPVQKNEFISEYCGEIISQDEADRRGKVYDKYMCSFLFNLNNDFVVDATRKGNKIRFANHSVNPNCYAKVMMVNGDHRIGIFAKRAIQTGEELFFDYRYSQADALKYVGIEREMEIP
Chain of PRC2 enzyme (Q15022 whole entry partner): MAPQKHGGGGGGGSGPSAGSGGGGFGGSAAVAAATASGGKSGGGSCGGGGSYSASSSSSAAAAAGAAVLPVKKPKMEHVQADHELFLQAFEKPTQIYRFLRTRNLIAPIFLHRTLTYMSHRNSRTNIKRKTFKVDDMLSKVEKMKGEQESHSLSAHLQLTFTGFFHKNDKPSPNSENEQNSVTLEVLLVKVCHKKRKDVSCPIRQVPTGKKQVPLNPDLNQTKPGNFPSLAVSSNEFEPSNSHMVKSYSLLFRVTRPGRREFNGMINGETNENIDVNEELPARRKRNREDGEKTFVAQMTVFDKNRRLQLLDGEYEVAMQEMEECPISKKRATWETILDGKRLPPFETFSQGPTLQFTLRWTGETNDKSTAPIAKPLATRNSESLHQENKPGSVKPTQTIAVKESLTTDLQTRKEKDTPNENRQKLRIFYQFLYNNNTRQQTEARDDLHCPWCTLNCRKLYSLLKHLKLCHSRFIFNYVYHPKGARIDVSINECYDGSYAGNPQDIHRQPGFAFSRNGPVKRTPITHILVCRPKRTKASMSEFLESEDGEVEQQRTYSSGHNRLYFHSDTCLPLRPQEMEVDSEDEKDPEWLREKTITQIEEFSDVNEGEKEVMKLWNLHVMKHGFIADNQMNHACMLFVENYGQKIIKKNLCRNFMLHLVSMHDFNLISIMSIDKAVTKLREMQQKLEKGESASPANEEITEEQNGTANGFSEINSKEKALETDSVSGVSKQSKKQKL
Description: The TR-FRET method was used to measure the PRC2 enzyme activity. First, the enzyme was mixed with compounds at different concentrations and incubated for 30 min at room temperature. The biotin-labeled histone H3 peptide substrate and the cofactor S-adenosylmethionine (SAM) were added to initiate the enzymatic reaction. After reaction was performed at room temperature for 4 hour, Acceptor and Donor were added and incubated for half an hour. The multifunctional microplate reader EnVision (Perkin Elmer Inc.) was used to detect the fluorescence signal. Data were analyzed using GraphPad Prism 5.0 software, and IC50 values were obtained.

Pfeiffer cells [2] = test: Growth inhibition of Pfeiffer cells in a long term (14 days), CellTiter-Glo; format: cell-based, Human; conditions: 14 days, read-out: Pfeiffer (14 days) IC50
Description: In a CO2 cell incubator (37° C., 5% CO2), Human diffuse large B-cell lymphoma (DLBCL) cell line, pfeiffer (obtained from ATCC, CRL-2632) were incubated with RPMI 1640 medium (Gibco, purchased from Life Technologies, 22400-089) containing 10% fetal bovine serum (Gibco, purchased from Life Technologies, 10099-141) and 1% antibiotics (penicillin and streptomycin, purchased from Life Technologies, 10378016). […] After seeding the cells, they were placed in a CO2 incubator and allowed to stand for 1 hour. In a 24-well plate containing cells, 2 μL of three-fold gradient of the compounds at 9 different concentrations or DMSO were added to each well, such that the final concentration of the compounds was 0.003-20 μM or 0.3-2000 nM, and the final concentration of DMSO was 0.2%. At day 4, day 7, and day 11 of compound treatment, the fresh medium and compounds were changed, and the cell density of the DMSO control well was diluted to 2*10E5 cells/mL. The cell dilution ratio for other compound wells was the same as that of the DMSO control well. Cell viability was determined by using CellTiter-Glo reagent (purchased from Promega Inc., G7572): cells treated with the compounds for 14 days were transferred to a white 384-well plate (OptiPlate-384, purchased from PerkinElmer, 6007299) at 40 μL/well, an equal volume of CellTiter-Glo reagent was further added. After incubating at room temperature for 10 min, the cold luminescence signal was detected with a multifunctional microplate reader EnVision (PerkinElmer) at a wavelength of 400 to 700 nm. Data were analyzed using GraphPad Prism 5.0 software, and IC50 values were obtained.

SU-DHL-4 cells = test: Growth inhibition of SU-DHL-4 cells in a long term (11 days), CellTiter-Glo; format: cell-based, Human; conditions: SU-DHL-4, 11 days, read-out: SU-DHL-4 (11 days) IC50

SMILES | IC50 (Karpas-422 cells; Homo sapiens, 264 h) [nM] | IC50 (Pfeiffer cells [1]; Homo sapiens, 264 h) [nM] | IC50 (PRC2 enzyme) [nM] | IC50 (Pfeiffer cells [2]; Homo sapiens, 336 h) [nM] | IC50 (SU-DHL-4 cells; Homo sapiens, 264 h) [nM] | IC50 (Karpas-422 cells) [nM] | IC50 (Pfeiffer cells [1]) [nM] | IC50 (Pfeiffer cells [2]) [nM] | IC50 (SU-DHL-4 cells) [nM]
CC(C)S(=O)(=O)N1CC=C(c2cnc(NCc3c(F)ccc4c3CCO4)n3cnnc23)CC1 [SL-ZYE-145] | 3.2 | 1.7 | 8.9 | 1 | 1 | – | – | – | –
O=S(=O)(C1CC1)N1CC=C(c2cnc(NCc3c(F)ccc4c3CCO4)n3cnnc23)CC1 [SL-ZYE-146] | 4 | 4.5 | 2.9 | 3 | 4 | – | – | – | –
O=C(C1CC1)N1CC=C(c2cnc(NCc3c(F)ccc4c3CCO4)n3cnnc23)CC1 [SL-ZYE-162] | 2.8 | 2.7 | 5.2 | 1.2 | 3.1 | – | – | – | –
CC1CC(c2cnc(NCc3c(F)ccc4c3CCO4)n3cnnc23)=CCO1 (stereo not shown) [SL-ZYE-196] | 19.9 | 7 | 14.1 | 4 | 9 to 50 | – | – | – | –
CC1C=C(c2cnc(NCc3c(F)ccc4c3CCO4)n3cnnc23)CCO1 (stereo not shown) [SL-ZYE-197] | – | – | 7.8 | – | – | 16 | 10 | 5 | 56
